In patent publication US20110207726A1, “Inhibitors of Human Cathepsin L, Cathepsin B, and Cathepsin S” (The Trustees of the University of Pennsylvania, priority 2008, published 2011):
Where two headings read alike, the source gives them in different places.

Columns and labels:
human liver cathepsin L = target: T1, human liver cathepsin L (Homo sapiens, UniProt P07711); test: Cathepsin L assay, IC50 determination; type: biochemical
T1 construct: 8.7 ng/mL human liver cathepsin L (Calbiochem 219402); purchased Calbiochem 219402; host or cells: human liver
T1 sequence (P07711 114-288 limits assumed): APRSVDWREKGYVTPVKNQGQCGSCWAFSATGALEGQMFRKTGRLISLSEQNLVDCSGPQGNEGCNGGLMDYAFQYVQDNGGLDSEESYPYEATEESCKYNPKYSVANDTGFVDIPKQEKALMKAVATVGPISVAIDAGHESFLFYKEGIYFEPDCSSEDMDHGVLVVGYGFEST
T1 sequence (P07711 292-333 limits assumed): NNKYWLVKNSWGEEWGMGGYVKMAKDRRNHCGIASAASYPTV
Protocol: Assay buffer consisted of 20 mM sodium acetate, 1 mM ethylenediaminetetraacetic acid (EDTA) and 5 mM cysteine, pH 5.5. Cathepsin L was incubated in assay buffer for 30 minutes prior to dispensing into wells to allow for efficient reduction of the active site cysteine required for full enzymatic activity.
Upon activation, cathepsin L (300 pM, 8.7 ng/mL) was incubated with 1 microM Z-Phe-Arg-AMC substrate (Sigma C9521) and test compound in […] of assay buffer for 1 hour at room temperature.
All reactions were performed in 20 mM sodium acetate buffer containing 5 mM cysteine and 1 mM EDTA, pH 5.5. Reaction progress was monitored using the Envision microplate reader. IC50 values were measured in triplicate.

[1] = Stability in DMSO and cathepsin L assay buffer; type: physicochemical
From the text: Some variability in IC50 values determined for Compound (iii) prompted us to explore the stability of both Compound No. 1 and Compound (iii) in solvents relevant to the bioassay.

Human liver cathepsin B = target: T2, Human liver cathepsin B (Homo sapiens, UniProt P07858); test: Cathepsin B assay, IC50 determination; type: biochemical
T2 construct: Human liver cathepsin B (Calbiochem 219362, 65 ng/mL); purchased Calbiochem 219362; host or cells: human liver
Protocol: (§1) Human spleen cathepsin S (Calbiochem 219344, 40 ng/mL) was assayed using 15 microM Z-Phe-Arg-AMC substrate. Human liver cathepsin B (Calbiochem 219362, 65 ng/mL) was assayed using 15 microM Z-Arg-Arg-AMC substrate (Bachem I-1135). All reactions were performed in 20 mM sodium acetate buffer containing 1 mM EDTA and 5 mM cysteine, pH 5.5.
(§2) Compounds were serially diluted in DMSO and transferred into a 96-well Corning 3686 assay microplate to give a 16-point two-fold serial dilution dose response ranging from 25 microM to 760 pM. Human liver cathepsin L (Calbiochem 219402) was activated by incubating with assay buffer for 30 min. Upon activation, cathepsin L (300 pM, 8.7 ng/mL) was incubated with 1 microM Z-Phe-Arg-AMC substrate (Sigma C9521) and test compound in […] of assay buffer for 1 hour at room temperature. Fluorescence of AMC released by enzyme-catalyzed hydrolysis of Z-Phe-Arg-AMC was read on a PerkinElmer Envision microplate reader (excitation 355 nm, emission 460 nm). Data were scaled using internal controls and fitted to a four-parameter logistic model (IDBS XLfit equation 205) to obtain IC50 values in triplicate.
(§3) Compound No. 1 was assayed for inhibition against papain and cathepsins B, G, K, S, and V. Papain from Carica papaya (Calbiochem 5125, 11 ng/mL), human cathepsin K (Calbiochem 342001, 35 ng/mL), human spleen cathepsin S (Calbiochem 219344, 40 ng/mL), and human cathepsin V (Calbiochem 219467, 39 ng/ml) were assayed using Z-Phe-Arg-AMC substrate at 20 μM, 20 μM, 15 μM, and 1 μM, respectively. Human liver cathepsin B (Calbiochem 219362, 65 ng/mL) was assayed using 15 μM Z-Arg-Arg-AMC substrate (Bachem I-1135). Human neutrophil cathepsin G (Calbiochem 219373, 4.2 μg/mL) was assayed using 15 μM Suc-Ala-Ala-Pro-Phe-AMC substrate (Sigma S9761). All reactions were performed in 20 mM sodium acetate buffer containing 5 mM cysteine and 1 mM EDTA, pH 5.5. Reaction progress was monitored using the Envision microplate reader. IC50 values were measured in triplicate.

Human spleen cathepsin S = target: T3, Human spleen cathepsin S (Homo sapiens, UniProt P25774); test: Cathepsin S assay, IC50 determination; type: biochemical
T3 construct: Human spleen cathepsin S (Calbiochem 219344, 40 ng/mL); purchased Calbiochem 219344; host or cells: human spleen
T3 sequence (P25774 115-331): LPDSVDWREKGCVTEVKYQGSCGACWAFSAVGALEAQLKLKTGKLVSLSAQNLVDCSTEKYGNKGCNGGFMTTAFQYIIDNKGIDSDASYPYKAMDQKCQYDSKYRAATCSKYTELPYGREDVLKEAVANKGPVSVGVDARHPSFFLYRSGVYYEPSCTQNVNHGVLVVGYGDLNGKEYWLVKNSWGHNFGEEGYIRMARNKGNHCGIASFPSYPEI
Protocol: as §1, §2, §3

SMILES	IC50 (human liver cathepsin L; no preincubation of enzyme and inhibitor, read-out: IC50 against cathepsin L (no preincubation)) [µM]	stability in DMSO [1]	IC50 (Human liver cathepsin B; Table 1, read-out: IC50 Cat B) [µM]	IC50 (human liver cathepsin L; Table 1, read-out: IC50 Cat L) [µM]	IC50 (Human spleen cathepsin S; Table 1, read-out: IC50 Cat S) [µM]	IC50 (Human liver cathepsin B; Tables 2-11, read-out: Cat B) [µM]	IC50 (human liver cathepsin L; Tables 2-11, read-out: Cat L) [µM]	IC50 (Human spleen cathepsin S; Tables 2-11, read-out: Cat S) [µM]
CCc1ccccc1NC(=O)CSC(=O)NNC(=O)[C@@H](N)Cc1c[nH]c2ccccc12 [Compound (iii)]	0.133	unstable						
CSCC[C@@H](CC(=O)NNC(=O)SCC(=O)N1CCCc2ccccc21)NC(=O)OC(C)(C)C [Compound No. 77]			> 25	6.95	3.01			
CCc1ccccc1NC(=O)CSC(=O)NNC(=O)C[C@@H](NC(=O)OC(C)(C)C)C(C)C [Compound No. 78]			11.5	7.52	> 25			
CC(C)[C@@H](CC(=O)NNC(=O)SCC(=O)N1CCCc2ccccc21)NC(=O)OC(C)(C)C [Compound No. 79]			15.8	> 25	> 25			
CCc1ccccc1NC(=O)CSC(=O)NNC(=O)C[C@@H]1CCCN1C(=O)OC(C)(C)C [Compound No. 80]			> 25	> 25	> 25			
CC(C)(C)OC(=O)N1CCC[C@H]1CC(=O)NNC(=O)SCC(=O)N1CCCc2ccccc21 [Compound No. 81]			> 25	> 25	> 25			
CCc1ccccc1NC(=O)CSC(=O)NNC(=O)C[C@H](COCc1ccccc1)NC(=O)OC(C)(C)C [Compound No. 82]			> 25	> 25	4.47			
CC(C)(C)OC(=O)N[C@@H](COCc1ccccc1)CC(=O)NNC(=O)SCC(=O)N1CCCc2ccccc21 [Compound No. 83]			> 25	2.12	5.95			
CCc1ccccc1NC(=O)CSC(=O)NNC(=O)C[C@@H](COCc1ccccc1)NC(=O)OC(C)(C)C [Compound No. 84]			> 25	> 25	15.2			
CC(C)(C)OC(=O)N[C@H](COCc1ccccc1)CC(=O)NNC(=O)SCC(=O)N1CCCc2ccccc21 [Compound No. 85]			> 25	> 25	> 25			
CCc1ccccc1NC(=O)CSC(=O)NNC(=O)C[C@@H](Cc1c[nH]c2ccccc12)NC(=O)OC(C)(C)C [Compound No. 86]			> 25	> 25	> 25			
CCc1ccccc1NC(=O)COC(=O)NNC(=O)[C@H](Cc1c[nH]c2ccccc12)NC(=O)OC(C)(C)C [Compound No. 93]						≥ 25	0.011	0.062
CC(C)(C)OC(=O)N[C@@H](Cc1c[nH]c2ccccc12)C(=O)NNC(=O)OCc1ccccc1 [Compound No. 94]						≥ 25	0.806	4.1
CCOC(=O)NNC(=O)[C@H](Cc1c[nH]c2ccccc12)NC(=O)OC(C)(C)C [Compound No. 95]						≥ 25	≥ 25	≥ 25
CCc1ccccc1NC(=O)CCC(=O)NNC(=O)[C@H](Cc1c[nH]c2ccccc12)NC(=O)OC(C)(C)C [Compound No. 113]						≥ 25	≥ 25	≥ 25
O=C(CCc1c[nH]c2ccccc12)NNC(=O)CCc1c[nH]c2ccccc12 [Compound No. 114]						≥ 25	≥ 25	≥ 25
CC(C)(C)OC(=O)N[C@@H](Cc1c[nH]c2ccccc12)C(=O)NNC(=O)CCC(=O)N1CCCc2ccccc21 [Compound No. 115]						≥ 25	≥ 25	≥ 25
CSCC[C@H](NC(=O)OC(C)(C)C)C(=O)NNC(=O)c1ccccc1 [Compound No. 116]						≥ 25	≥ 25	≥ 25
CC(C)(C)OC(=O)N[C@@H](Cc1c[nH]c2ccccc12)C(=O)NNC(=O)[C@@H](Cc1c[nH]c2ccccc12)NC(=O)OC(C)(C)C [Compound No. 117]						≥ 25	≥ 25	≥ 25
CC(C)(C)OC(=O)N[C@@H](Cc1c[nH]c2ccccc12)C(=O)NN [Compound No. 118]						≥ 25	≥ 25	≥ 25
CC(C)(C)OC(=O)N[C@H](Cc1c[nH]c2ccccc12)C(=O)NN [Compound No. 119]						≥ 25	≥ 25	≥ 25
CC(C)(C)OC(=O)N[C@@H](Cc1c[nH]c2ccccc12)C(=O)NOCC(=O)N1CCCc2ccccc21 [Compound No. 120]						≥ 25	≥ 25	≥ 25
C/C=C(/C=O)[C@@H](CC=O)CC(=O)OCCc1ccc(O)cc1 [Compound No. 121]						≥ 25	≥ 25	≥ 25
Cc1ccc(S(=O)(=O)NNC(=O)[C@H](Cc2ccc(OC(=O)OC(C)(C)C)cc2)NC(=O)OC(C)(C)C)cc1 [Compound No. 122]						≥ 25	≥ 25	≥ 25
CC(C)(C)OC(=O)N[C@@H](Cc1c[nH]c2ccccc12)C(=O)N/N=C/c1ccccc1 [Compound No. 123]						≥ 25	≥ 25	≥ 25
CC(C)(C)OC(=O)N[C@@H](Cc1c[nH]c2ccccc12)C(=O)N/N=C/c1ccc(Cl)cc1 [Compound No. 124]						≥ 25	≥ 25	≥ 25
CC(C)(C)OC(=O)N[C@@H](Cc1c[nH]c2ccccc12)C(=O)NNC(=O)NCC(=O)N1CCCc2ccccc21 [Compound No. 125]						≥ 25	2.34	13
CSCC[C@H](NC(=O)OC(C)(C)C)C(=O)NNC(=S)SCC(=O)N1CCc2ccccc21 [Compound No. 126]						≥ 25	≥ 25	≥ 25
CC(C)(C)OC(=O)N[C@@H](Cc1ccc(OC(=O)OC(C)(C)C)cc1)C(=O)NNC(=O)C(=O)N1CCc2ccccc2C1 [Compound No. 127]						≥ 25	≥ 25	≥ 25
